Publication PMC9463526 (Journal of Pharmaceutical Analysis, 2022)

Key:
[1] = Equilibrium dialysis, fraction unbound in brain homogenate; format: in vitro ADME, human; settings: for fraction unbound at 16 h: pH 7.4, human brain homogenate spiked at 20 and 200 nM, 16 h equilibrium dialysis, read-out: Fraction unbound (fu), Brain; for Plasma protein binding compared to binding to brain tissue components (ratio): spiked pooled human plasma vs human brain homogenate
Description: Equilibrium dialysis was employed to measure the fraction unbound of analytes in plasma, brain, and brain tumor tissue homogenates using 96-well DispoEquilibrium Dialyzer plates with a 10 kDa cut-off regenerated cellulose membrane. Dialysis was performed using 180 μL of human plasma or tissue homogenate against an equal volume of PBS (pH 7.4) in a dual-plate rotator (Harvard Apparatus, Holliston, MA, USA). Equilibrium time was initially optimized by analyzing samples after 2, 4, 6, 8, 16, and 24 h of dialysis at concentrations of 20 and 200 nM in human plasma and brain homogenate. The dialysates were collected and processed as described in Sections 2.3.2 and 2.3.3. The recovery of analytes was calculated as the ratio of analyte concentration after dialysis (sum of concentrations found in PBS and matrix fractions) to the total concentration to ensure the reliability and reproducibility of the assay. The experiments were repeated at least three times, and each sample in triplicate and average fraction unbound values were determined.
The fraction unbound in plasma (fu, plasma) and tissue homogenate (fu, hom) was evaluated as the analyte concentration ratio of post-dialysis PBS (cu) to post-dialysis plasma (cp, Eq. (1)) or homogenate (chom, Eq. (2)).(1) fu,plasma =cu/cp (2) fu,hom =cu/chom
The fraction unbound in the actual tissue (fu, tissue) was obtained by incorporating the unbound fraction in the tissue homogenate (fu, hom) and the dilution factor (Df) into Eq. (3).(3) fu,tissue = fu,hom/[Df - (Df - 1)fu,hom]

[2] = Pilot pharmacokinetic studies in mice (blood-brain barrier); format: in vivo
[3] = set-up: method as in investigational brochures; settings: ref investigational brochures; cited from earlier work
[4] = Tumor-to-plasma partition coefficients (Kp, Kp,uu) in GBM patients; format: in vivo, human; settings: for Unbound tumor-to-plasma partition coefficient (Kp,uu), fold lower than abemaciclib: both GBM regions, five patients
Description: Blank brain and clinical brain tumor tissue homogenates were prepared at 1:9 (m/V) ratio with PBS. The samples were homogenized at a speed of 6.00 m/s for 40 s for three cycles using a Bead Ruptor Elite homogenizer (Omni International, Kennesaw, GA, USA). Plasma was used as a surrogate matrix when preparing calibration curves for brain and brain tumor homogenates and CSF as well as for the PBS fraction after sample dialysis. To minimize matrix differences, all plasma samples were spiked with PBS, while all non-plasma samples were spiked with plasma. Extraction of the analyte and IS was facilitated by protein precipitation using methanol-containing IS precipitation solution. Samples (70 μL) spiked with PBS or plasma were precipitated using 400 μL of IS precipitation solution. After centrifugation at 12,000 r/min for 10 min at 4 °C, the supernatant was transferred for LC-MS/MS analysis.
Unbound drug levels in the actual plasma and brain tumor tissue were measured using dialysis for 16 h to reach equilibrium. The mean of fraction unbound values determined in five patient samples was calculated.
The validated bioanalytical method was employed to investigate analytes pharmacokinetics in the plasma, brain tumor, and CSF in GBM patients (ClinicalTrials.gov identifier: NCT04391595). The protocol was reviewed and approved by the Institutional Review Board of the Barrow Neurological Institute, St. Joseph's Hospital and Medical Center (Phoenix, AZ, USA). All patients enrolled in the trial provided written informed consent. […] Blood, CSF, and GBM tissue (including gadolinium-contrast enhancing and non-enhancing regions) samples were obtained intra-operatively from each patient on the […] on the planned operation day. Blood was centrifuged at 4 °C and 3,000 r/min for 10 min; plasma was subsequently collected. Brain tumors were resected 7–9 h after the last dose was administered. Once resected, the tissue samples were rinsed with PBS, paper dried, and freshly frozen in liquid nitrogen. […]

With `Cn1nccc1Nc1nccc(-c2cc3c(s2)C(C)(C)N(CCN2CCOCC2)C3=O)n1` [LY3214996] the fraction unbound at 16 h [1] was 0.065, the “Plasma protein binding compared to binding to brain tissue components (ratio)” value [1] was “at least 5.5 fold” and the “Crossing of the blood-brain barrier” value [2] was “may cross the blood-brain barrier”. For the same compound, the “pKa (strongest basic)” value [3] was 6.21.
For `Cc1nc2c(F)cc(-c3nc(Nc4ccc(CN5CCNCC5)cn4)ncc3F)cc2n1C(C)C` [M2], the fraction unbound at 16 h [1] was 0.008, the “Plasma protein binding compared to binding to brain tissue components (ratio)” value [1] was “at least 6.5 fold” and the “Unbound tumor-to-plasma partition coefficient (Kp,uu), fold lower than abemaciclib” value [4] was “at least 3 fold”. The “Total tumor-to-plasma partition coefficient (Kp), fold higher than M20” value ([4]; gadolinium-contrast enhancing and non-enhancing GBM regions) was > 2 fold.
In the case of `CCN1CCN(Cc2ccc(Nc3ncc(F)c(-c4cc(F)c5nc(CO)n(C(C)C)c5c4)n3)nc2)CC1` [M20], the fraction unbound at 16 h [1] is reported as 0.021 and the “Unbound tumor-to-plasma partition coefficient (Kp,uu), fold lower than abemaciclib” value [4] is reported as “at least 3 fold”.
